In ChEMBL document CHEMBL1145169, “Discovery of substituted maleimides as liver X receptor agonists and determination of a ligand-bound crystal structure” (J Med Chem, 2005):
Several values for one entry are separate records, joined by “and”; a condition that tells them apart may be missing. Equal values may be shown once.

Experiments:
[1] = target: Glycogen synthase kinase-3 beta (Homo sapiens, UniProt P49841); assay: Inhibition of human GSK3-beta
[2] = target: T1, Oxysterols receptor LXR-alpha (Homo sapiens, UniProt Q13133); assay: Effective concentration for Steroid receptor coactivator-1 (SRC1) recruitment to human LXRalpha (Liver X receptor)
T1 sequence (Q13133 whole entry): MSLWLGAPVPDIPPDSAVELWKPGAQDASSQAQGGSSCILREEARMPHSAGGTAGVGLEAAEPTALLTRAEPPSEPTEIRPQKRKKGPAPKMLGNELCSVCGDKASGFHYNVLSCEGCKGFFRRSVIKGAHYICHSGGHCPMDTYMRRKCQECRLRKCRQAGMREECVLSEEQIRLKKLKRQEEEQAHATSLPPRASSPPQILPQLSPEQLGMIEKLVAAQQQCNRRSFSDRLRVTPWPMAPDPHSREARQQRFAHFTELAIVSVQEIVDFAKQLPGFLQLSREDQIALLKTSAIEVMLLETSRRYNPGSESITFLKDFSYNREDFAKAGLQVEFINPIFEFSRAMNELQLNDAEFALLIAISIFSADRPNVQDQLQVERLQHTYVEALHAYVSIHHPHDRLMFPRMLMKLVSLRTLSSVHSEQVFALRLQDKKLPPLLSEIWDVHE

[3] = target: T2, Oxysterols receptor LXR-beta (Homo sapiens, UniProt P55055); assay: Effective concentration for Steroid receptor coactivator-1 (SRC1) recruitment to human LXRbeta (Liver X receptor)
T2 sequence (P55055 whole entry): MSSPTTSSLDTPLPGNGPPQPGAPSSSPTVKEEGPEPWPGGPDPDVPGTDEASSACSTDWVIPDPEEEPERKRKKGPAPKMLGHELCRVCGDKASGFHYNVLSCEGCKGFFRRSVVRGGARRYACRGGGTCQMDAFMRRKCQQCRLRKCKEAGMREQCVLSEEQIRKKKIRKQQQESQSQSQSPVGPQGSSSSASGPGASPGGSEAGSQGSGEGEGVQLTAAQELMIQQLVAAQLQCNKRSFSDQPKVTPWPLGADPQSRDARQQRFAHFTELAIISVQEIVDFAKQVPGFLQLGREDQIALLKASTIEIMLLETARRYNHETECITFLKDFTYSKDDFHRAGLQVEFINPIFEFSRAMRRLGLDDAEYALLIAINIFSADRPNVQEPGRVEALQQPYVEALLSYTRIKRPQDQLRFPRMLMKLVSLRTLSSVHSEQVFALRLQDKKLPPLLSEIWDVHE

[4] = Effective concentration in human ATP binding cassette transporter A1 (ABCA1) transcriptional activation assay
[5] = target: T3, Oxysterols receptor LXR-alpha (Homo sapiens) (UniProt Q13133)
T3 sequence (whole entry): T1 sequence (Q13133 whole entry)
Description: Relative efficacy for Steroid receptor coactivator-1 (SRC1) recruitment to human LXRalpha compared to GW-3965

[6] = target: T4, Oxysterols receptor LXR-beta (Homo sapiens) (UniProt P55055); assay: Relative efficacy in Steroid receptor coactivator-1 (SRC1) recruitment to human LXRbeta compared to GW-3965
T4 sequence (whole entry): T2 sequence (P55055 whole entry)

Chain of Glycogen synthase kinase-3 beta (P49841 whole entry): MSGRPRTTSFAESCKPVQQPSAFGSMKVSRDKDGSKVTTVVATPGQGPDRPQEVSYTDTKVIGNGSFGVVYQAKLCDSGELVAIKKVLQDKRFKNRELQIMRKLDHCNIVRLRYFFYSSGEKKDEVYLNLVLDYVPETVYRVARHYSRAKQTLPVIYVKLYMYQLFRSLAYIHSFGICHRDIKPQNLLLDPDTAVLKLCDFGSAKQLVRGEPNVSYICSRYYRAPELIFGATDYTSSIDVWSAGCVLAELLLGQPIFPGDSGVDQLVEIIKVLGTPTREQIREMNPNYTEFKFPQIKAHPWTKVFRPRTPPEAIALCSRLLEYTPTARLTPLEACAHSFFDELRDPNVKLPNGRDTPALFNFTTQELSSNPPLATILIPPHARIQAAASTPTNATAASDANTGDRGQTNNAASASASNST

Row | SMILES | IC50 [1] [µM] | EC50 [2] [µM] | EC50 [3] [µM] | EC50 [4] [µM] | RE (Homo sapiens) | RE [5] | RE [6]
1 | COc1ccc(NC2=C(c3ccccc3)C(=O)N(Cc3ccccc3)C2=O)cc1 | > 5 | 0.05 | 0.04 | 0.08 | 0.9 | 0.9 | 
2 | CCN1C(=O)C(Nc2ccc(OC)cc2)=C(c2ccccc2)C1=O | > 5 | 0.3 | 0.2 | 10.2 | 0.4 | 1.1 and 0.9 | 
3 | COc1ccc(NC2=C(c3ccccc3)C(=O)N(c3ccccc3)C2=O)cc1 | > 5 | 0.275 | 0.26 | 1.12 | 0.7 | 0.7 and 0.6 | 
4 | CCN1C(=O)C(Nc2ccc(Cl)cc2)=C(c2ccccc2)C1=O | > 5 | 0.725 | 0.575 | 4.55 | 0.4 | 0.5 and 0.6 | 
5 | O=S(=O)(c1ccccc1)N(CC(F)(F)F)c1ccc(C(O)(C(F)(F)F)C(F)(F)F)cc1 [T091317] |  |  |  | 0.07 | 1 | 1.1 and 0.8 | 
6 | CN1C(=O)C(Nc2ccccc2)=C(c2ccccc2)C1=O | > 5 | 1.59 | 0.85 | 4.65 | 0.3 | 0.5 and 0.6 | 
7 | O=C1C(Nc2ccccc2)=C(c2ccccc2)C(=O)N1Cc1ccccc1 | > 5 | 0.1 | 0.07 | 1.32 | 0.6 | 0.3 and 0.5 | 
8 | O=C(O)Cc1cccc(OCCCN(Cc2cccc(C(F)(F)F)c2Cl)CC(c2ccccc2)c2ccccc2)c1 |  | 0.08 |  | 0.17 | 1 | 1 | 1
9 | CCN1C(=O)C(Nc2ccccc2)=C(c2ccccc2)C1=O | > 5 | 0.89 | 0.56 | 1.79 | 0.5 | 0.7 | 
10 | COc1ccc(NC2=C(c3ccccc3)C(=O)N(C)C2=O)cc1 | > 2 | 0.575 | 0.3 | 0.84 | 1.4 | 0.9 | 
11 | O=C1C(Nc2ccc(Cl)cc2)=C(c2ccccc2)C(=O)N1Cc1ccccc1 | > 5 | 0.13 | 0.11 | 1.42 | 0.4 | 0.3 and 0.4 | 
